Source: EP4722219A1 (Gan & Lee Pharmaceuticals Co., Ltd., priority 2023, dated 2024)

Experiments:
Assay type in all cases: cell-based
T-47D cells = test: Inhibition of cell proliferation in T-47D cells (CCK-8); details: 6 days treatment, CCK-8 cell viability
Summary of the method: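 Viability by CCK-8 after a 6-day, 37 °C/5% CO2 exposure of T-47D cells (3,000/well, RPMI-1640 + 10% FBS) to graded PROTAC concentrations. Inhibition rates gave the IC50.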

MCF-7 cells = test: Inhibition of cell proliferation in MCF-7 cells (CCK-8); details: MCF-7 cell proliferation, 6 days treatment
Summary of the method: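 IC50 from CCK-8 viability-based inhibition after 6-day treatment of MCF-7 cells (800 cells/well, 10% FBS DMEM, 37 °C, 5% CO2) with serially varied compound concentrations.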

ERα [1] = target: T1, ERα (Homo sapiens, UniProt P03372); test: ERα degradation in MCF-7 cells (Western blot); design: host or cells: MCF-7; details: 4 hours
T1 sequence (P03372 1-595): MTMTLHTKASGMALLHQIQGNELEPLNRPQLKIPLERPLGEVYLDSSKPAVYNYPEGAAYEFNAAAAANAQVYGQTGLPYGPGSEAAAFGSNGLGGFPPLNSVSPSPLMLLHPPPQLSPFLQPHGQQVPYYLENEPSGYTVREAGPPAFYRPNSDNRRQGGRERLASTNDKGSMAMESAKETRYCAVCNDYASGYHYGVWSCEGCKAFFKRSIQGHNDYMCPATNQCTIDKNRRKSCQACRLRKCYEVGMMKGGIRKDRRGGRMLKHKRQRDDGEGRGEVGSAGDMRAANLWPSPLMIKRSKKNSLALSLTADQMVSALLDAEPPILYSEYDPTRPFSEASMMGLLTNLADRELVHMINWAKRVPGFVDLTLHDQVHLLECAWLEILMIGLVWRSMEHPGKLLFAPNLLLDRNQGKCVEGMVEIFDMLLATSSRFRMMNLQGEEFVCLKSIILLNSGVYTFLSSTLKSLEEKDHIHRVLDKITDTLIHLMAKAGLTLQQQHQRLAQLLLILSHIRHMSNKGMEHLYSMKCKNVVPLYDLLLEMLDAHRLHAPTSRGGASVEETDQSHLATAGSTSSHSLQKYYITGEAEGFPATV
Summary of the method: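 ERα degradation was quantified by immunoblot densitometry, ERα signal divided by internal-reference signal and compared with control. Compounds were applied to MCF-7 cells for 4 hours at final concentrations of 0.15–1000 nM, with 20 µg total protein loaded per lane.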

ERα [2] = target: T1, ERα; test: ERα degradation in T-47D cells (Western blot); details: 4 hours
Summary of the method: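 ERα was quantified by immunoblot of RIPA lysates (20 µg total protein), normalised to an internal reference band, and degradation was expressed against control. Lysates came from T-47D cells plated at 3×10^5 cells/well and dosed 4 hours at 37°C with compound at 0.15-1000 nM final concentration.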

Row | SMILES | Degradation rate of ERα in MCF-7 cells (%) (ERα [1]; 1nM) | Degradation rate of ERα in MCF-7 cells (%) (ERα [1]; 10nM) | Degradation rate of ERα in T-47D cells (%) (ERα [2]; 1nM) | Degradation rate of ERα in T-47D cells (%) (ERα [2]; 10nM) | IC50 (MCF-7 cells) [nM] | IC50 (T-47D cells) [nM] | IC50 (T-47D cells; Homo sapiens, T47D, 144 h) [nM] | IC50 (MCF-7 cells; Homo sapiens, MCF7, 144 h) [nM]
1 | O=C1CCC(Nc2ccc3c(c2)OC2(CC3)CCN(C[C@H]3CC[C@@H](OC4CCN(c5ccc([C@@H]6c7ccc(O)cc7CC[C@@H]6c6ccccc6)cc5)CC4)CC3)CC2)C(=O)N1 (stereo partly drawn) [ER-P-43, 3-((1'-(((1S,4s)-4-((1-(4-((1R,2S)-6-hydroxy-2-phenyl-1,2,3,4-tetrahydronaphthalen-1-yl)phenyl)piperidin-4-yl)oxy)cyclohexyl)methyl)spiro[chromane-2,4'-piperidin]-7-yl)amino)piperidine-2,6-dione] | -13 | -19 | 10 | -1 | – | – | 95.1 | 1070
2 | O=C1CC[C@H](NC(=O)c2ccc3c(c2)OCC[C@H]2CN(CC4CCC(OC5CCN(c6ccc([C@@H]7c8ccc(O)cc8CC[C@@H]7c7ccccc7)cc6)CC5)CC4)CCN32)C(=O)N1 (stereo partly drawn) [ER-P-45, (S)-N-((S)-2,6-dioxopiperidin-3-yl)-3-((4-((1-(4-((1R,2S)-6-hydroxy-2-phenyl-1,2,3,4-tetrahydronaphthalen-1-yl)phenyl)piperidin-4-yl)oxy)cyclohexyl)methyl)-2,3,4,4a,5,6-hexahydro-1H-benzo[b]pyrazino[1,2-d][1,4]oxazepine-9-carboxamide] | -15 | -24 | -5 | -3 | 1630 | 1.48 | – | –
3 | COc1cc2c(cc1C(=O)N[C@H]1CCC(=O)NC1=O)OCC[C@H]1CN(CC3CCC(OC4CCN(c5ccc([C@@H]6c7ccc(O)cc7CC[C@@H]6c6ccccc6)cc5)CC4)CC3)CCN21 (stereo partly drawn) [ER-P-46, (S)-N-((S)-2,6-dioxopiperidin-3-yl)-3-(((1S,4R)-4-((1-(4-((1R,2S)-6-hydroxy-2-phenyl-1,2,3,4-tetrahydronaphthalen-1-yl)phenyl)piperidin-4-yl)oxy)cyclohexyl)methyl)-10-methoxy-2,3,4,4a,5,6-hexahydro-1H-benzo [b]pyrazino[1,2-d][1,4]oxazepine-9-carboxamide] | 6 | 36 | 35 | 55 | 731 | 1.17 | – | –
4 | COc1c(C(=O)N[C@H]2CCC(=O)NC2=O)ccc2c1OC[C@H]1CN(CC3CCC(OC4CCN(c5ccc([C@@H]6c7ccc(O)cc7CC[C@@H]6c6ccccc6)cc5)CC4)CC3)CCN21 (stereo partly drawn) [ER-P-48, (R)-N-((S)-2,6-dioxopiperidin-3-yl)-3-(((1S,4S)-4-((1-(4-((1R,2S)-6-hydroxy-2-phenyl-1,2,3,4-tetrahydronaphthalen-1-yl)phenyl)piperidin-4-yl)oxy)cyclohexyl)methyl)-7-methoxy-1,2,3,4,4a,5-hexahydrobenzo[b]pyrazi no[1,2-d][1,4]oxazine-8-carboxamide] | 13 | -1 | 6 | 0 | 7390 | 115 | – | –
5 | COc1cc2c(cc1C(=O)N[C@H]1CCC(=O)NC1=O)N(C)C[C@H]1CN(CC3CCC(OC4CCN(c5ccc([C@@H]6c7ccc(O)cc7CC[C@@H]6c6ccccc6)cc5)CC4)CC3)CCN21 (stereo partly drawn) [ER-P-49, (R)-N-((S)-2,6-dioxopiperidin-3-yl)-3-(((1S,4S)-4-((1-(4-((1R,2S)-6-hydroxy-2-phenyl-1,2,3,4-tetrahydronaphthalen-1-yl)phenyl)piperidin-4-yl)oxy)cyclohexyl)methyl)-9-methoxy-6-methyl-2,3,4,4a,5,6-hexahydro-1H-pyrazino[1,2-a]quinoxaline-8-carboxamide] | -12 | 23 | -11 | 30 | 3730 | 1.17 | – | –
6 | Cn1c(=O)n(C2CCC(=O)NC2=O)c2ccc3c(c21)OCC31CCN(C[C@H]2CC[C@@H](OC3CCN(c4ccc([C@@H]5c6ccc(O)cc6CC[C@@H]5c5ccccc5)cc4)CC3)CC2)CC1 (stereo partly drawn) [ER-P-54, 3-(1'-(((1S,4S)-4-((1-(4-((1R,2S)-6-hydroxy-2-phenyl-1,2,3,4-tetrahydronaphthalen-1-yl)phenyl)piperidin-4-yl)oxy)cyclohexyl)methyl)-1-methyl-2-oxo-1,2-dihydro-3H,7H-spiro[benzofuro[6,7-d]imidazole-6,4'-piperidin]-3-yl)piperidine-2,6-dione] | 50 | 76 | 67 | 81 | – | – | 0.15 | 1020

Continued, in another order:

Row | Degradation rate of ERα in MCF-7 cells (%) (ERα [1]; 1nM) | Degradation rate of ERα in MCF-7 cells (%) (ERα [1]; 10nM) | Degradation rate of ERα in T-47D cells (%) (ERα [2]; 1nM) | Degradation rate of ERα in T-47D cells (%) (ERα [2]; 10nM) | IC50 (MCF-7 cells) [nM] | IC50 (T-47D cells) [nM] | SMILES | IC50 (T-47D cells; Homo sapiens, T47D, 144 h) [nM] | IC50 (MCF-7 cells; Homo sapiens, MCF7, 144 h) [nM]
7 | 10 | 39 | -29 | 30 | 805 | – | O=C1CC[C@H](NC(=O)c2ccc3c(c2)OCC[C@H]2CN(CC4CCC(OC5CCN(c6ccc([C@@H]7c8ccc(O)cc8CC[C@@H]7c7ccccc7)cc6)CC5)CC4)CCN32)C(=O)N1 (stereo partly drawn) [ER-P-44, (S)-N-((S)-2,6-dioxopiperidin-3-yl)-3-((4-((1-(4-((1R,2S)-6-hydroxy-2-phenyl-1,2,3,4-tetrahydronaphthalen-1-yl)phenyl)piperidin-4-yl)oxy)cyclohexyl)methyl)-2,3,4,4a,5,6-hexahydro-1H-benzo[b]pyrazino[1,2-d][1,4]oxazepine-9-carboxamide] | 1.26 | –
8 | -2 | 7 | 6 | 6 | – | – | CN(c1ccc2c(c1)COC[C@H]1CN(CC3CCC(OC4CCN(c5ccc([C@@H]6c7ccc(O)cc7CC[C@@H]6c6ccccc6)cc5)CC4)CC3)CCN21)C1CCC(=O)NC1=O (stereo partly drawn) [ER-P-52, 3-(((R)-3-((4-((1-(4-((1R,2S)-6-hydroxy-2-phenyl-1,2,3,4-tetrahydronaphthalen-1-yl)phenyl)piperidin-4-yl)oxy)cyclohexyl)methyl)-1,2,3,4,4a,5-hexahydro-7H-benzo[e]pyrazino[2,1-c][1,4]oxazepin-9-yl)(methyl)amino)piperidine-2,6-dione] | 248 | 854
9 | 10 | 21 | 18 | 33 | 1310 | 252 | CN(c1ccc2c(c1)COC[C@H]1CN(CC3CCC(OC4CCN(c5ccc([C@@H]6c7ccc(O)cc7CC[C@@H]6c6ccccc6)cc5)CC4)CC3)CCN21)C1CCC(=O)NC1=O (stereo partly drawn) [ER-P-53, 3-(((R)-3-((4-((1-(4-((1R,2S)-6-hydroxy-2-phenyl-1,2,3,4-tetrahydronaphthalen-1-yl)phenyl)piperidin-4-yl)oxy)cyclohexyl)methyl)-1,2,3,4,4a,5-hexahydro-7H-benzo[e]pyrazino[2,1-c][1,4]oxazepin-9-yl)(methyl)amino)piperidine-2,6-dione] | – | –
